Assay results as given in patent US20230233555A1 (AbbVie Inc., priority 2022, published 2023).
“Also recorded” adds a separate entry of the source.

Experiments:
[1] = tested on: patients with moderately to severely active rheumatoid arthritis, inadequate response to MTX; assay: Trial RA-II (NCT02706951); assay type: in vivo, human; conditions: RA-II through Week 14; 30 mg monotherapy
Description: The primary endpoint was the proportion of patients who achieved an ACR20 response at Week 14. Key secondary endpoints included DAS28-CRP ≤3.2, DAS28-CRP <2.6, and change from baseline in HAQ-DI at Week 14.

[2] = Model-estimated and predicted upadacitinib Cmax and AUCss in UC patients with severe renal impairment; design: species or system human; conditions: for Predicted Cmax in UC Patients with Severe Renal Impairment based on results from M13-551, Median: model-estimated value multiplied by 1.14; for Predicted AUCss in UC Patients with Severe Renal Impairment based on results from M13-551, Median: model-estimated value multiplied by 1.44
Description: Therefore, it is recommended that the induction dose is reduced in UC patients with severe renal impairment to 30 mg QD.
Therefore, it is recommended that the maintenance dose is reduced in UC patients with severe renal impairment to 15 mg QD.

[3] = Milk excretion in lactating rats; assay type: in vivo, rat; conditions: female, Sprague-Dawley, rat, milk (relative to maternal plasma); single oral 10 mg/kg radiolabeled, post-partum days 7-8; read-out: Drug exposure in milk vs maternal plasma (AUC0-t)
Description: (§1) Drug exposure was approximately 30-fold greater in milk than in maternal plasma based on AUC0-t values. Approximately 97% of drug-related material in milk was parent drug.

[4] = tested on: lactating female Sprague-Dawley rats; assay: Milk excretion in lactating rats; assay type: in vivo, rat; conditions: single oral 10 mg/kg radiolabeled
Description: as §1

[5] = tested on: CYP1A2, 2B6, 2C8, 2C9, 2C18, 2C19, 2J2, FMO1, FMO3, OATP1B1, OATP1B3, OCT1; assay: In vitro substrate assessment, other enzymes and transporters; assay type: in vitro ADME
[6] = Human radiolabeled [14C]-upadacitinib study (metabolism and excretion); assay type: in vivo
[7] = Renal impairment pharmacokinetic study (Study M13-551); assay type: in vivo, human
Description: (§2) Renal clearance indicates some involvement of renal transporters in the excretion. Renal secretion is however not estimated to contribute to more than 25% of the elimination. […] As used herein, reference to “severe renal impairment” means a creatinine clearance of less than 30 mL/min.
This may increase the risk of adverse reactions; therefore, dosage modification in patients with severe renal impairment is recommended.

[8] = Model-estimated and predicted upadacitinib Cmax and AUCss in UC patients with co-administration of strong CYP3A4 inhibitors; design: species or system human; conditions: for Predicted Median Cmax in UC Patients with Strong CYP3A4 inhibitors based on results from M13-401: model-estimated value multiplied by 1.7; for Predicted AUCss in UC Patients with Strong CYP3A4 inhibitors based on results from M13-401, Median: model-estimated value multiplied by 1.75
Description: (§3) The data from Study M13-401 are provided in Table 38 and Table 39, which show the expected increase in Cmax and AUCss, respectively, in patients with UC across all dose levels with co-administration of CYP3A4 inhibitors.

QTc interval = assay: Cardiac electrophysiology (QTc); assay type: in vivo, human
[9] = tested on: IL-6 (JAK1/JAK2)-induced STAT3 and IL-7 (JAK1/JAK3)-induced STAT5 phosphorylation; assay: IL-6 induced STAT3 and IL-7 induced STAT5 phosphorylation in whole blood of healthy volunteers; assay type: in vivo, human; conditions: immediate release formulation
Description: The maximal inhibition was observed 1 hour after dosing which returned to near baseline by the end of dosing interval.

male and female rats = assay: Fertility study in rats; assay type: in vivo, rat
[10] = tested on: CYP1A2, CYP2B6, CYP2C8, CYP2C9, CYP2C19, CYP2D6, CYP3A4; assay: In vitro CYP inhibition; assay type: in vitro ADME; conditions: clinically relevant concentrations
[11] = tested on: patients with moderately to severely active rheumatoid arthritis, naive to MTX; assay: Trial RA-I (NCT02706873); assay type: in vivo, human; conditions: RA-I through Week 24; 30 mg
Description: The primary endpoint was the proportion of patients who achieved an ACR50 response at Week 12. Key secondary endpoints included disease activity score (DAS28-CRP) ≤3.2 at Week 12, DAS28-CRP <2.6 at Week 24, change from baseline in HAQ-DI at Week 12, and change from baseline in van der Heijde-modified total Sharp Score (mTSS) at Week 24.
Inhibition of progression of structural joint damage was assessed using the modified Total Sharp Score (mTSS) and its components, the erosion score and joint space narrowing score, at Week 26 in Trial RA-IV and Week 24 in Trial RA-I. The proportion of patients with no radiographic progression (mTSS change from baseline […]) was also assessed.

Tg.rasH2 mice = assay: Carcinogenicity study in Tg.rasH2 mice; assay type: in vivo, mouse; conditions: 26 weeks, oral up to 20 mg/kg/day
[12] = Population pharmacokinetic analyses; assay type: in vivo, human
Description: as §2
The effect of different intrinsic factors has been evaluated in dedicated PK studies in renal and hepatic impairment and in Asian subjects, and by population pharmacokinetic analysis from the phase 2/3 studies. […] There are limited data in patients aged 75 years and older and there is no pharmacokinetic data in children and adolescents.

[13] = Drug interaction studies: effect of co-administered drugs on upadacitinib pharmacokinetics (incl. Study M13-401); assay type: in vivo, human
Description: as §3

[14] = tested on: human peripheral blood lymphocytes; assay: In vitro chromosome aberration assay; assay type: cell-based
[15] = e.g. ketoconazole, Study M13-401
[16] = ketoconazole 400 mg QD, upadacitinib IR formulation
[17] = rifampicin 600 mg QD for 8 days

With `CC[C@@H]1CN(C(=O)NCC(F)(F)F)C[C@@H]1c1cnc2cnc3[nH]ccc3n12` [upadacitinib, (3S,4R)-3-Ethyl-4-(3H-imidazo[1,2-a]pyrrolo[2,3-e]pyrazin-8-yl)-N-(2,2,2-trifluoroethyl)pyrrolidine-1-carboxamide hydrate (2:1)] the “Venous thrombosis, number of patients” value [1] was 0 patients, the “Predicted Cmax in UC Patients with Severe Renal Impairment based on results from M13-551, Median” value (“Predicted Cmax in UC Patients” below) ([2]; 7.5 mg treatment group) was 23.0 ng/mL and the “Predicted AUCss in UC Patients with Severe Renal Impairment based on results from M13-551, Median” value (shortened to “Predicted AUCss … from M13-551, Median”) ([2]; 7.5 mg treatment group) was 232 ng·h/mL. The “Predicted Cmax in UC Patients” value ([2]; 15 mg treatment group) was 47.1 ng/mL, the “Predicted AUCss … from M13-551, Median” value ([2]; 15 mg treatment group) was 492 ng·h/mL and the “Predicted Cmax in UC Patients” value ([2]; 30 mg treatment group) was 89.5 ng/mL. For the same compound, the “Predicted AUCss … from M13-551, Median” value ([2]; 30 mg treatment group) was 940 ng·h/mL, the “Predicted Cmax in UC Patients” value ([2]; 45 mg treatment group) was 138 ng/mL and the “Predicted AUCss … from M13-551, Median” value ([2]; 45 mg treatment group) was 1431 ng·h/mL. The Kp [3] was roughly 30, the “Parent drug share of drug-related material in milk” value [4] was “Approximately 97%” and the “Substrate of CYP1A2, 2B6, 2C8, 2C9, 2C18, 2C19, 2J2, FMO1, FMO3, OATP1B1, OATP1B3 or OCT1” value [5] was “not a substrate”. The “Unchanged upadacitinib share of total radioactivity in plasma” value ([6]; human radiolabeled study) was 79%, the Active metabolites ([6]; in vivo) was “No active metabolites” and the “Cmax, impaired vs normal renal function” value ([7]; in vivo) was “similar”. The “Contribution of the renal route to elimination” value ([7]; in vivo) was “approximately 25%”, the “AUCinf higher vs normal renal function” value ([7]; mild renal impairment) was 18% and the “AUCinf higher vs normal renal function” value ([7]; moderate renal impairment) was 33%. The “AUCinf higher vs normal renal function” value ([7]; severe renal impairment) was 44%, the “Cmax higher vs normal renal function” value ([7]; severe renal impairment, Study M13-551) was 14% and the “Predicted Median Cmax in UC Patients with Strong CYP3A4 inhibitors based on results from M13-401” value ([8]; 7.5 mg treatment group) was 34.3 ng/mL. For the same compound, the “Predicted AUCss in UC Patients with Strong CYP3A4 inhibitors based on results from M13-401, Median” value ([8]; 7.5 mg treatment group) was 282 ng·h/mL, the “Predicted Median Cmax in UC Patients with Strong CYP3A4 inhibitors based on results from M13-401” value ([8]; 15 mg treatment group) was 70.2 ng/mL and the “Predicted AUCss in UC Patients with Strong CYP3A4 inhibitors based on results from M13-401, Median” value ([8]; 15 mg treatment group) was 599 ng·h/mL. For the same compound, the “Predicted Median Cmax in UC Patients with Strong CYP3A4 inhibitors based on results from M13-401” value ([8]; 30 mg treatment group) was 133 ng/mL, the “Predicted AUCss in UC Patients with Strong CYP3A4 inhibitors based on results from M13-401, Median” value ([8]; 30 mg treatment group) was 1143 ng·h/mL and the “Predicted Median Cmax in UC Patients with Strong CYP3A4 inhibitors based on results from M13-401” value ([8]; 45 mg treatment group) was 206 ng/mL. For the same compound, the “Predicted AUCss in UC Patients with Strong CYP3A4 inhibitors based on results from M13-401, Median” value ([8]; 45 mg treatment group) was 1740 ng·h/mL, the “Effect on QTc interval” value (QTc interval; 2.5 times the mean exposure of the 45 mg once daily dose) was “no clinically relevant effect” and the “Effect on QTc interval” value (QTc interval; 6 times the mean maximum exposure of the 15 mg once daily dose) was “no clinically relevant effect”. The “Inhibition of IL-6-induced STAT3 and IL-7-induced STAT5 phosphorylation in whole blood” value [9] was “dose- and concentration-dependent inhibition”, the “Time of maximal inhibition after dosing” value [9] was 1 h and the “Exposure multiple with viable embryos unaffected” value (male and female rats; 5 mg/kg/day, AUC basis) was “approximately 1.0 times the MRHD of 30 mg”. For the same compound, the “Exposure multiple with adverse effect on maintenance of pregnancy” value (male and female rats; 25 mg/kg/day, AUC basis) was “approximately 13 times the MRHD of 30 mg”, the “Exposure multiple with adverse effect on maintenance of pregnancy” value (male and female rats; 75 mg/kg/day, AUC basis) was ~48 times the MRHD of 30 mg and the “Exposure multiple without effect on fertility” value (male and female rats; female rats, 75 mg/kg/day, AUC basis) was ~48 times the MRHD of 30 mg. For the same compound, the “Number of viable embryos” value (male and female rats; females 5 mg/kg/day mated to males at the same dose) was “unaffected”, the “Exposure multiple without effect on fertility” value (male and female rats; male rats, 50 mg/kg/day, AUC basis) was “approximately 24 times the MRHD of 30 mg” and the “Maintenance of pregnancy (post-implantation losses, viable embryos per litter)” value (male and female rats; oral 25 and 75 mg/kg/day) was “adversely affected”. For the same compound, the Fertility (male and female rats; oral up to 50 mg/kg/day males, 75 mg/kg/day females) was “no effect on fertility”, the “Inhibition (or induction) of CYP1A2, 2B6, 2C8, 2C9, 2C19, 2D6, 3A4” value [10] was “does not inhibit or induce; also recorded: no in vivo relevant inhibition” and the “Arterial thrombosis, number of patients” value [11] was 1 patient. The “Venous thrombosis, number of patients” value [11] was 1 patient, the Tumorigenicity (Tg.rasH2 mice) was “No evidence of tumorigenicity” and the “Plasma exposure, adolescent / pediatric (12 years and older, at least 40 kg) vs adult subjects” value ([12]; atopic dermatitis studies) was “similar; also recorded: No meaningful difference”. For the same compound, the “Age as covariate on CL/F and Vc/F” value ([12]; continuous and discrete (adolescents ≥40 kg vs adults)) was “not found to be statistically significant”, the “Effect of pH modifying medications (antacids, proton pump inhibitors) on plasma exposures” value ([12]; in vitro assessments and population PK analyses) was “not expected to affect” and the “Effect of body weight, gender, race, ethnicity, age on upadacitinib pharmacokinetics / exposure” value ([12]; in vivo) was “no relevant effects; also recorded: did not have a clinically meaningful effect”. For the same compound, the “Pharmacokinetics in geriatric patients (>65 years) vs younger adults” value ([12]; in vivo) was “No clinically meaningful differences”, the “Effect of CYP2D6 metabolic phenotype (extensive vs poor metabolizers) on upadacitinib CL/F, pharmacokinetics” value ([12]; population PK analysis) was “comparability; also recorded: no effect” and the “Upadacitinib exposure with methotrexate” value ([13]; co-administration with methotrexate) was “no effect”. The “Upadacitinib plasma exposure with strong CYP2D6 inhibitors, OATP1B inhibitors, MTX, pH modifying medications or statins” value ([13]; concomitant administration) was “no effect”, the “Upadacitinib AUC (AUCinf) increase with strong CYP3A4 inhibitor” value [13, 15] was 75% and the “Upadacitinib Cmax increase with strong CYP3A4 inhibitor” value [13, 15] was 70%. The “Upadacitinib half-life with ketoconazole” value ([13]; ketoconazole 400 mg QD) was “no effect on half-life”, the “Upadacitinib AUC increase with ketoconazole” value [13, 16] was 1.8 fold and the “Upadacitinib Cmax increase with ketoconazole” value [13, 16] was 1.7 fold. For the same compound, the “Upadacitinib AUC decrease with rifampicin” value [13, 17] was 60%, the “Upadacitinib Cmax decrease with rifampicin” value [13, 17] was 50% and the “Genotoxicity, chromosome aberration” value [14] was “tested negatively”.
